# Source: ChEMBL document CHEMBL1201862, “PubChem BioAssay data set” (2004)
# Calls of active or inactive are those of the source.
# Assays:
# [1] = target: T1, Heat shock factor protein 1 (Mus musculus, UniProt P38532); assay: decrease of HSF1-responsive luciferase luminescence – cell-based, NIH3T3, dose retest, confirmation (AID 2382); assay type: functional;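 further: NIH3T3 fibroblasts with HSF1-driven luciferase reporter stressed by proteasome inhibitor MG132; luminescence from HSF1-driven luciferase expression after 8 hours of MG132 stress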
# T1 sequence (P38532 whole entry): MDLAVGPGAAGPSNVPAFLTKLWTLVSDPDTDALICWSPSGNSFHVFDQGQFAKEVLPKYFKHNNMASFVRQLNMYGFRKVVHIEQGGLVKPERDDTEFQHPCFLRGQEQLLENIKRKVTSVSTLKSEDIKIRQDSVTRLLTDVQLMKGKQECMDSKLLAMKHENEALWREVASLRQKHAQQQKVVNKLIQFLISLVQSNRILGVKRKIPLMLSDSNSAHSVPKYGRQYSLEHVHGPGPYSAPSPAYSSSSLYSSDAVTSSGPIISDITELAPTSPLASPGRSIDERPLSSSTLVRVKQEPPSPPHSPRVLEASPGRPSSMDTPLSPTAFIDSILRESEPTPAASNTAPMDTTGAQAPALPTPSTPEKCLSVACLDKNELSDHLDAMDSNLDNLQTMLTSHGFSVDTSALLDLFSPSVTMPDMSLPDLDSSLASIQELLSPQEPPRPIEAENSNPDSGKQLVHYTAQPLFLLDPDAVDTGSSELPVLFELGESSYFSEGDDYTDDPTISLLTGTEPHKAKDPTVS
# [2] = HEK-293T cell viability reduction – luminescence, B-cell screen hits, cytotoxicity control for BCR NF-kB inhibitor project, dose response (AID 489021); assay type: functional, cell-based;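 further: HEK-293T cells carrying an NF-kB luciferase reporter; cells exposed to compound for about 14 hours before viability readout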
# Cytochrome P450 3A4 [3] = target: T2, Cytochrome P450 3A4 (Homo sapiens, UniProt P08684);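 further: CYP3A4 tested as one member of a cytochrome P450 panel screen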
# Cytochrome P450 2C19 = Cytochrome P450 2C19 (Homo sapiens, UniProt P33261); assay: Cytochrome panel assay with activity outcomes. Panel member name: p450-cyp2c19 Compounds with AC50 equal or less than 10 uM are considered active; assay type: functional; details: read-out: AC50
# Cytochrome P450 3A4 [4] = target: T2, Cytochrome P450 3A4; remark: listed apart in the source
# [5] = target: T3, Mannose-6-phosphate isomerase (Homo sapiens, UniProt P34949); assay: MPI inhibition at elevated mannose 6-phosphate – biochemical, fluorescence intensity, high mannose 6-phosphate, primary screen (AID 1220)
# T3 sequence (P34949 whole entry): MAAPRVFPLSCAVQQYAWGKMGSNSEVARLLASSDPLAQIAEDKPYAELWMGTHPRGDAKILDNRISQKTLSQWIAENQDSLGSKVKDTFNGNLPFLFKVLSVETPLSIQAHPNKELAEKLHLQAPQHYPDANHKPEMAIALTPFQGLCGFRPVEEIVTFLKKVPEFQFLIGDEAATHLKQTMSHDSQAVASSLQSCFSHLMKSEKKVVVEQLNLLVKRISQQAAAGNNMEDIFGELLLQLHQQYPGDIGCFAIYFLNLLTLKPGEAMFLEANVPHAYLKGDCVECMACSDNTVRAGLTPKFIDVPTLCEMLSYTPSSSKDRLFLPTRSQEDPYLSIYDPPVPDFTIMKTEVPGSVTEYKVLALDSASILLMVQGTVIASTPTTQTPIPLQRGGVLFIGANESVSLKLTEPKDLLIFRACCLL
# [6] = target: T1, Heat shock factor protein 1; assay: enhancement of HSF1-driven luciferase signal – cell-based, NIH3T3, luminescence, dose retest, confirmation (AID 435004); assay type: functional;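 further: stress induced by proteasome inhibitor MG132 added 30 min after compound; luciferase reporter driven by HSF1 response element in NIH3T3 cells; actives raise luminescence as potentiators of the MG132 stress response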
# Caspase-3 = target: T4, Caspase-3 (Homo sapiens, UniProt P42574); assay type: functional;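 further: Dose-response selectivity test against caspase-3 for candidate inhibitors of sentrin-specific proteases (SENPs)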
# T4 sequence (P42574 whole entry): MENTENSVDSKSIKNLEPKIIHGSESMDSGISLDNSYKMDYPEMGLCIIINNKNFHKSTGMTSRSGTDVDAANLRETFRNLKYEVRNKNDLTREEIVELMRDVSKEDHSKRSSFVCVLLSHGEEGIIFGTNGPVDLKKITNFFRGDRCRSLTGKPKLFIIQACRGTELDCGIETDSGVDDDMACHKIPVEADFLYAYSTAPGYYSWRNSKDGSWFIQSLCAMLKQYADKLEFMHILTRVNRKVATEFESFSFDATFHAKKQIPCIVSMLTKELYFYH
# [7] = target: T5, Sentrin-specific protease 7 (Homo sapiens, UniProt Q9BQF6); assay type: functional;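 further: Luminescence-based dose-response confirmation of ultra-high-throughput screening hits, measuring inhibition of SENP7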
# T5 sequence (Q9BQF6 whole entry): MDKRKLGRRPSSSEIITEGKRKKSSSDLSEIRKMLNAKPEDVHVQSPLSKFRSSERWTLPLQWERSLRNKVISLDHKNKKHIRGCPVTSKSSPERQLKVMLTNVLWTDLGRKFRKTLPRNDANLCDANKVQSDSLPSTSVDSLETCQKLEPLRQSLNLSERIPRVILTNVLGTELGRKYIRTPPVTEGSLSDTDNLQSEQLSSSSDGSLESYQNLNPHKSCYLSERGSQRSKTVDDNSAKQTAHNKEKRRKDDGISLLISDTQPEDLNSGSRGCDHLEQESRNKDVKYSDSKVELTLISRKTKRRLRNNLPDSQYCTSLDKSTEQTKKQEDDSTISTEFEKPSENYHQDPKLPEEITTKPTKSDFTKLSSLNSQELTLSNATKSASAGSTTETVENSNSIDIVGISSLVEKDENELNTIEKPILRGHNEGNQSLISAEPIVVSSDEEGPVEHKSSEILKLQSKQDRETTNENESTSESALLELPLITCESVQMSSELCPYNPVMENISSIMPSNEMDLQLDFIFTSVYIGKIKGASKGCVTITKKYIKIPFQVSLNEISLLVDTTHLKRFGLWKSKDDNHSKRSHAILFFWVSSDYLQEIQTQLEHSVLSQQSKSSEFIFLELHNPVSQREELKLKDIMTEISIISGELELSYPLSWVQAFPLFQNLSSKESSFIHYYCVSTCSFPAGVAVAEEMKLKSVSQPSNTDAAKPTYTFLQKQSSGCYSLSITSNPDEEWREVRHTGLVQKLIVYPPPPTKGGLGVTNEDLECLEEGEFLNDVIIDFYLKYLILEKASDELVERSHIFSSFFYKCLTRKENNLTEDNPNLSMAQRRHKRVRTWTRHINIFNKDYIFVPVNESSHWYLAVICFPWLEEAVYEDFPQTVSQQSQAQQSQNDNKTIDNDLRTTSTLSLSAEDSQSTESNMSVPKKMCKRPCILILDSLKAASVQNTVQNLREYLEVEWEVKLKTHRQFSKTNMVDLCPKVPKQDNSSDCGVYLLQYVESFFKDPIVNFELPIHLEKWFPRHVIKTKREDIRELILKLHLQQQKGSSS
# [8] = target: T6, Sentrin-specific protease 6 (Homo sapiens, UniProt Q9GZR1); assay type: functional;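 further: Luminescence-based dose-response confirmatory assay of SENP6 inhibition, following up an ultra-high-throughput screen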
# T6 sequence (Q9GZR1 whole entry): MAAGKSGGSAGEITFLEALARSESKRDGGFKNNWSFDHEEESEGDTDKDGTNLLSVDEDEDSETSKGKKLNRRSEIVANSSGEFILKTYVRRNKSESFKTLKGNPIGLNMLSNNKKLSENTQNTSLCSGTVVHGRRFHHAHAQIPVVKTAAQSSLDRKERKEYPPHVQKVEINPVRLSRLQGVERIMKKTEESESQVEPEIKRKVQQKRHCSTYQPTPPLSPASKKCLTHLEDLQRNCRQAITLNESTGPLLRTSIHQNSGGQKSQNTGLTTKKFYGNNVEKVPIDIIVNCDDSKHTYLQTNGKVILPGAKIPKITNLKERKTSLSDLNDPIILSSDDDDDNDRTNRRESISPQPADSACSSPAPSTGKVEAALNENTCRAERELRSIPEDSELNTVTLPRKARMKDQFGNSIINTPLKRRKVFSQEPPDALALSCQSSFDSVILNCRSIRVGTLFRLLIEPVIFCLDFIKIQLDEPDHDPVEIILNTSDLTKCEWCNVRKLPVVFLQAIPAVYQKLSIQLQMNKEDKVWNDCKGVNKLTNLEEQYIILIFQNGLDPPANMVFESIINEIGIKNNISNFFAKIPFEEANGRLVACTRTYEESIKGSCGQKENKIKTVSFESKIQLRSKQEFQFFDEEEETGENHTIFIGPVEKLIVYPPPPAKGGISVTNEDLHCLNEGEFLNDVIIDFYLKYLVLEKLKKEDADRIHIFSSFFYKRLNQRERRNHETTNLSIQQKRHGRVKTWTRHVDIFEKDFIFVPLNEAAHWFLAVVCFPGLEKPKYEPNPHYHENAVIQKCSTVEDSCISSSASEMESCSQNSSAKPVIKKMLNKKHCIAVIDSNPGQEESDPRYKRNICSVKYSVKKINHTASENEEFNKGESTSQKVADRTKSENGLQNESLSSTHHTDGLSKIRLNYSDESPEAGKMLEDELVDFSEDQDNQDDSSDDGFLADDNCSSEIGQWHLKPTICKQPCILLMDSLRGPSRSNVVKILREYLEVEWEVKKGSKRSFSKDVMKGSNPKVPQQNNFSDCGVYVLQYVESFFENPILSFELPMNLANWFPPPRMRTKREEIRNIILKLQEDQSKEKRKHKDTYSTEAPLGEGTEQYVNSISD
# [9] = target: T7, Sentrin-specific protease 8 (Homo sapiens, UniProt Q96LD8); assay type: functional;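 further: luminescence read-out of SENP8 inhibition, dose-response confirmation following an ultra-high-throughput screen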
# T7 sequence (Q96LD8 whole entry): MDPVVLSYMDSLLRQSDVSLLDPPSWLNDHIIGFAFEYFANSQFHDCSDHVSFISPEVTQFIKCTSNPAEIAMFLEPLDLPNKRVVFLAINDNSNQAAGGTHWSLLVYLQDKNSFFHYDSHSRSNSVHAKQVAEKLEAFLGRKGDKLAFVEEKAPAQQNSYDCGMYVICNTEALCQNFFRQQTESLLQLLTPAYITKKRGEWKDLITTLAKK
# Cytochrome P450 2C9 = Cytochrome P450 2C9 (Homo sapiens, UniProt P11712)
# H9c2 = assay: cells; assay type: functional, cell-based; details: Rattus norvegicus, H9c2, Myocardium;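 further: confirmatory concentration-response retest of ultra-high-throughput screening hits for modulation of myocardial damage; cell death induced by hydrogen peroxide oxidative stress; compound pretreatment for 60 min then peroxide exposure for 2 h; potency is for protecting the cells against peroxide damage rather than for killing them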
# [10] = blockers of bursicon-stimulated LGR2 cAMP reporter – cell-based, HEK293, CRE-luciferase reporter, cherry pick, set 2, dose response (AID 743343); assay type: functional;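 further: transfected cells were stimulated with diluted bursicon conditioned medium after compound addition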
# [11] = blockade of melanocortin 4 receptor signaling – cell-based, plate reader, cherry pick, counter-screen for LGR2 antagonist project, dose response (AID 743444); assay type: functional;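 further: transfected HEK 293 cells stimulated with alpha-MSH peptide; potency of inhibitors of the alpha-MSH evoked signal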
# [12] = test system: Streptococcus sp. 'group A'; assay: Streptococcus pyogenes SK(-)GAS viability under kanamycin – luminescence, BacTiterGlo, confirmation, counter-screen for streptokinase expression inhibitor project, dose response (AID 1900); assay type: functional, organism-based
# [13] = microbe, parasite or virus in culture; assay type: functional; details: Mycobacterium tuberculosis
# Streptococcus = assay: GAS UMAA2166 growth inhibition – luminescence, BacTiterGlo, counter-screen for streptokinase expression inhibitor project, dose response (AID 1915); assay type: functional, organism-based;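 further: potency for reduction of bacterial viability or growth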
# [14] = THP-1 cell cytotoxicity, dose response, cytotoxicity control for non-replicating M. tuberculosis project (AID 489025); assay type: functional
# [15] = Vero E6 cell cytotoxicity, dose response, cytotoxicity control for non-replicating M. tuberculosis project, secondary assay (AID 492998); assay type: functional, VeroE6; details: Vero C1008
# cells = assay type: functional
# T2 sequence (P08684 whole entry): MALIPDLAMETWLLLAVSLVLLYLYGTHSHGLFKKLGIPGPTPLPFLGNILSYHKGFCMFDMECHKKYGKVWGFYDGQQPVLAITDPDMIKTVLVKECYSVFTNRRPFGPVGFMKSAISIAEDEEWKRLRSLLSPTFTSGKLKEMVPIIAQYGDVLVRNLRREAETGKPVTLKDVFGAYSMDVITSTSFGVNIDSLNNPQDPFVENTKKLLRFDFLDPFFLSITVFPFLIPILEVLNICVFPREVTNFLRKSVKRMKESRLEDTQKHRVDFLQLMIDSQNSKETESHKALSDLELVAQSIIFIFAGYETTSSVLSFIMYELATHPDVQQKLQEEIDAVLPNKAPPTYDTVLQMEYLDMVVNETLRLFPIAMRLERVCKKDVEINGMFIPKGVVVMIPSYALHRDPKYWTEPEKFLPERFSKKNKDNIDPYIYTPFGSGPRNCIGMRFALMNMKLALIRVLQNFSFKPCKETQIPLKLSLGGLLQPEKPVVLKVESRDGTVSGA
# Cytochrome P450 2C19, sequence (P33261 whole entry): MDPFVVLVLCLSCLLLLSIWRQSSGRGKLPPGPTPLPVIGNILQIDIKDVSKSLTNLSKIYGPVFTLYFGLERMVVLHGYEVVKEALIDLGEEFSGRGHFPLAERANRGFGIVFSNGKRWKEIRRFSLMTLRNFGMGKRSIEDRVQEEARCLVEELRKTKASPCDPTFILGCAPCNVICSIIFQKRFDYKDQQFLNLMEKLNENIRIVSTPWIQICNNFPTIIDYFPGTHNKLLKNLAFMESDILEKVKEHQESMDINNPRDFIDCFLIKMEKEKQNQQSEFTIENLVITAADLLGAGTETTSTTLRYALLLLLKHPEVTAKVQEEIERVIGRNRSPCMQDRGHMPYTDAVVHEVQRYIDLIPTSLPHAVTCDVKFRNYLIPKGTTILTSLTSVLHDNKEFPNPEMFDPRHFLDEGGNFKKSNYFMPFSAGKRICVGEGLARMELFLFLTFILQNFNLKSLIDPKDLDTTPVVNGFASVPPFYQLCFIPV
# Cytochrome P450 2C9, sequence (P11712 whole entry): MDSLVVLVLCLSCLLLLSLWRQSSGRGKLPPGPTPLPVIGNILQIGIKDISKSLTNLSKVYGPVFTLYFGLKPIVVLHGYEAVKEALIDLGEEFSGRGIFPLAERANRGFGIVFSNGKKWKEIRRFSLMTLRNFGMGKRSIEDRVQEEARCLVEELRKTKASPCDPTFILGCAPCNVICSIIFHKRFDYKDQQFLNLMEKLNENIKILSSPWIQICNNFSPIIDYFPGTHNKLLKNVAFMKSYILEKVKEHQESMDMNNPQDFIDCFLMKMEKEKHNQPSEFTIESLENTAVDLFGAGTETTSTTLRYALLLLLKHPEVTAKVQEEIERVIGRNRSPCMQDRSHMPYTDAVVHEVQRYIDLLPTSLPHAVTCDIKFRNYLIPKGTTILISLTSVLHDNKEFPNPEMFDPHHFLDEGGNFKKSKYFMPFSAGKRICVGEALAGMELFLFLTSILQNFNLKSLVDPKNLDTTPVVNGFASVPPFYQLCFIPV
structure (smiles),measurement,setting,value
O=C(O)CCN1C(=O)/C(=C/c2nc3ccccc3[nH]2)SC1=S,EC50,[1],7.78 µM (active)
same,IC50,[2],> 80 µM (inactive)
COc1ccc(NC(=O)N2CCC3(CC2)CCN(C(=O)c2cccc(F)c2)CC3)cc1,AC50,Cytochrome P450 3A4 [3],inconclusive
Cc1cc(N2CCOCC2)nc2ccc(Cc3ccc4nc(N5CCOCC5)cc(C)c4c3)cc12,AC50,Cytochrome P450 3A4 [3],inconclusive
O=C(NCCCN1CCC(Cc2ccccc2)CC1)C1CCN(S(=O)(=O)N2CCOCC2)CC1,AC50,Cytochrome P450 2C19,25.1 µM (inconclusive)
same,AC50,Cytochrome P450 3A4 [3],inconclusive
CCCC(=O)N1CCN(c2ccc(NC(=O)c3ccc(OCC)c([N+](=O)[O-])c3)cc2)CC1,AC50,Cytochrome P450 2C19,28.2 µM (inconclusive)
same,AC50,Cytochrome P450 3A4 [3],inconclusive
C[C@H](O/N=C1/[C@H]2O[C@@H]2[C@@H](O)[C@H]2[C@H]1CCn1c(=O)n(-c3ccccc3)c(=O)n12)c1cn([C@H](CO)Cc2ccccc2)nn1,AC50,Cytochrome P450 3A4 [4],3.98 µM (inconclusive)
same,AC50,Cytochrome P450 3A4 [3],3.98 µM (inconclusive)
Cc1ccc(S(=O)(=O)N(C)C)cc1NC(S)=Nc1ccc2c[nH]nc2c1,IC50,[5],> 50 µM (not active)
CCOc1ccccc1CNCCN1CCOCC1.Cl,EC50,[6],> 260 µM (inactive)
same,AC50,Cytochrome P450 3A4 [3],inconclusive
CCOc1ccc(-n2nc3cc(C)c(N)cc3n2)cc1,IC50,Caspase-3,7.93 µM (active)
same,IC50,[7],2.94 µM (active)
same,IC50,[8],6.21 µM (active)
same,IC50,[9],59.3 µM (active)
NC(=O)c1ccccc1OCC(=O)Nc1ccc(Cl)c(Cl)c1,IC50,Caspase-3,37.8 µM (active)
same,IC50,[7],10.4 µM (active)
same,EC50,[6],> 260 µM (inconclusive)
same,IC50,[8],> 100 µM (inactive)
same,IC50,[9],> 100 µM (inactive)
Cn1c(=O)c(-c2ccc(Cl)cc2)nc2cnc(N3CCOCC3)nc21,AC50,Cytochrome P450 3A4 [3],inconclusive
same,AC50,Cytochrome P450 2C9,inconclusive
O=C(O)c1cccc(NC(=O)c2cccc(S(=O)(=O)N3CCc4ccccc43)c2)c1,IC50,Caspase-3,90.5 µM (active)
same,IC50,[7],9.85 µM (active)
same,IC50,[8],23.7 µM (active)
same,IC50,[9],24.4 µM (active)
COc1cc(NC(=O)c2cccc3c(-c4cnn(C)c4)coc23)cc(OC)c1OC,IC50,H9c2,> 79 µM (inactive)
same,AC50,[10],24.3 µM (active)
same,AC50,[11],17.9 µM (active)
Cc1ccc2nc(N/C(N)=N/C(=O)NC3CCCCC3)nc(C)c2c1,EC50,[12],5.35 µM (active)
same,CC50,[13],21.1 µM (active)
same,EC50,Streptococcus,> 150 µM (not active)
same,CC50,[14],23.2 µM (active)
same,CC50,[15],18.5 µM (active)
same,IC50,cells,3.74 µM (active)
